{"source": "paper PMC7050258", "about": "“Inhibition of MGAT2 modulates fat‐induced gut peptide release and fat intake in normal mice and ameliorates obesity and diabetes in ob/ob mice fed on a high‐fat diet” (FEBS Open Bio, 2020)", "key": {"rats fed a 35% fat diet": {"tested_on": "rats fed a 35% fat diet", "design": "method as in PMID 25857225", "settings": "cited from earlier work"}, "C57BL/6J mice": {"tested_on": "C57BL/6J mice", "assay": "Food choice test (HFD vs LFD)", "assay_type": "in vivo, mouse", "settings": "overnight, CpdB 10 mg/kg oral, liraglutide 0.04 mg/kg sc", "protocol": "The choice between HFD (D12451; Research Diets, Inc.) and low‐fat diet (LFD, 10% kcal fat, 3.8 kcal·g^−1; D124510B; Research Diets, Inc.) was assessed in C57BL/6J mice. Following habituation to normal chow, HFD and LFD were presented in separate containers simultaneously, and overnight food intake of each diet was monitored. The mice were divided into groups based on the data of food intake and body weight. Then, vehicle or CpdB (10 mg·kg^−1) was orally administered, and the overnight food intake of each diet was monitored. CpdB was suspended in 0.5% methylcellulose. As a positive control, liraglutide (0.04 mg·kg^−1) dissolved in 10% DMSO/saline was subcutaneously administered."}, "rats": {"tested_on": "rats", "design": "method as in PMID 22301859", "settings": "cited from earlier work"}, "HFD-fed ob/ob mice": {"tested_on": "HFD-fed ob/ob mice", "assay": "HFD-fed ob/ob mice study", "assay_type": "in vivo, mouse", "protocol": "Male ob/ob mice were fed an HFD (D12451; Research Diets, Inc.) from 8 weeks of age to the end of the study. After 2 weeks of HFD feeding, the mice were divided into groups based on their body weight, food intake, glycated hemoglobin (GHb), and plasma biochemical parameters. […] Compounds were suspended in 0.5% methylcellulose. Body weight and food intake were monitored during the study. On day 34, blood was collected and GHb and plasma biochemical parameters were measured. In addition, body composition was analyzed by EchoMRI‐900 (Hitachi Aloka Medical, Ltd., Tokyo, Japan). On day 36, the mice in the vehicle‐ and CpdB‐treated group were individually placed in the metabolic chamber of an Oxymax system (Columbus Instruments, Columbus, OH, USA). After 3 h of adaptation, oxygen consumption (VO2) and carbon dioxide production (VCO2) were analyzed for 22 h (from 13:00 to 11:00). During the measurement, dosing of vehicle or CpdB was performed at 18:00. Respiratory quotient (RQ) and energy expenditure (EE) were calculated with the following formulas: RQ=VCO2/VO2 EEkcal/h=3.815+1.232×VCO2/VO2×VO2\nBlood samples were collected from the tail or facial vein without anesthesia and centrifuged at 1500 g for 10 min at 4 °C to isolate the plasma. To prevent degradation of incretin hormone, blood samples were treated with not only heparin/aprotinin but also a dipeptidyl peptidase‐4 (DPP‐4) inhibitor. Plasma alanine aminotransferase […] levels were measured by an Autoanalyzer 7180 (Hitachi High‐Technologies Corporation, Tokyo, Japan). GHb was measured with an automated GHb analyzer (HLC‐723G8; Tosoh, Tokyo, Japan). Plasma insulin was measured with an ELISA kit (Shibayagi Co., Ltd., Gunma, Japan). Plasma levels of total GLP‐1 and total PYY were also measured with an ELISA kit (Wako Pure Chemicals)."}, "[1]": {"settings": "CpdB 30 mg/kg, pioglitazone 3 mg/kg oral once daily, mean"}, "[2]": {"settings": "CpdB 30 mg/kg, pioglitazone 3 mg/kg oral once daily, single animal values"}, "[3]": {"settings": "EchoMRI, day 34, CpdB 30 mg/kg, pioglitazone 3 mg/kg, mean"}, "[4]": {"settings": "EchoMRI, day 34, CpdB 30 mg/kg, pioglitazone 3 mg/kg, single animal values"}, "[5]": {"settings": "day 34, CpdB 30 mg/kg, pioglitazone 3 mg/kg oral once daily, mean ± SD, n=8"}}, "note": "Where “and” joins values, the source holds several entries; their conditions need not be identical. Equal values may be shown once."}
{"compound": "CC(C)(C)c1cc(C(C)(C)C)nc(N2CCn3c(nnc3-c3ccc(OC(F)(F)F)cc3)C2)n1", "note": "[JTP‐103237]", "values": [{"measurement": "increase of plasma levels of PYY after lipid loading", "setting": "rats fed a 35% fat diet", "result": "enhance the increase"}]}
{"compound": "Liraglutide", "values": [{"measurement": "Food intake, energy intake of HFD, AVE", "setting": "C57BL/6J mice; mean, N=5", "result": 6.46, "unit": "kcal"}, {"measurement": "Food intake, energy intake of low-fat diet, AVE", "setting": "C57BL/6J mice; mean, N=5", "result": 0.24, "unit": "kcal"}, {"measurement": "Food intake, total energy intake, AVE", "setting": "C57BL/6J mice; mean, N=5", "result": 6.69, "unit": "kcal"}, {"measurement": "Food intake, energy intake of HFD, individual animal", "setting": "C57BL/6J mice; single animal values", "result": "6.02 kcal and 8.08 kcal and 6.16 kcal and 4.18 kcal and 7.85 kcal"}, {"measurement": "Food intake, energy intake of low-fat diet, individual animal", "setting": "C57BL/6J mice; single animal values", "result": "0.00 kcal and 0.19 kcal and 0.34 kcal and 0.27 kcal and 0.38 kcal"}, {"measurement": "Food intake, total energy intake, individual animal", "setting": "C57BL/6J mice; single animal values", "result": "6.02 kcal and 8.27 kcal and 6.50 kcal and 4.45 kcal and 8.23 kcal"}, {"measurement": "intake of highly palatable diet", "setting": "rats", "result": "predominantly reduce the intake of highly palatable diet"}]}
{"compound": "CCc1ccc(CCOc2ccc(CC3SC(=O)NC3=O)cc2)nc1", "note": "(stereo not shown) [Pioglitazone, pioglitazone, reference compound]", "values": [{"measurement": "Body weight change from initial, AVE", "setting": "HFD-fed ob/ob mice; [1]", "result": 30.48, "unit": "%"}, {"measurement": "Cumulative food intake, AVE", "setting": "HFD-fed ob/ob mice; [1]", "result": 136.37, "unit": "g"}, {"measurement": "Body weight change from initial, individual animal", "setting": "HFD-fed ob/ob mice; [2]", "result": "29.04% and 29.60% and 25.91% and 30.72% and 29.56% and 32.63% and 37.29%"}, {"measurement": "Cumulative food intake, individual animal", "setting": "HFD-fed ob/ob mice; [2]", "result": "144.84 g and 134.34 g and 122.14 g and 143.74 g and 138.07 g and 136.64 g and 133.11 g and 138.10 g"}, {"measurement": "Body composition, Fat, AVE", "setting": "HFD-fed ob/ob mice; [3]", "result": 63.35, "unit": "%"}, {"measurement": "Body composition, Lean, AVE", "setting": "HFD-fed ob/ob mice; [3]", "result": 36.65, "unit": "%"}, {"measurement": "Body composition, Fat, individual animal", "setting": "HFD-fed ob/ob mice; [4]", "result": "62.74% and 63.31% and 66.38% and 62.25% and 63.50% and 61.77% and 61.53% and 65.34%"}, {"measurement": "Body composition, Lean, individual animal", "setting": "HFD-fed ob/ob mice; [4]", "result": "33.62% and 37.75% and 36.50% and 38.23% and 38.47% and 37.26% and 36.69%"}, {"measurement": "GHb, Pre", "setting": "HFD-fed ob/ob mice; before dosing, mean ± SD, n=8", "result": "5.9 ± 0.3", "unit": "%"}, {"measurement": "Plasma AST, Pre", "setting": "HFD-fed ob/ob mice; before dosing, mean ± SD, n=8", "result": "314 ± 61", "unit": "U·L^−1"}, {"measurement": "Plasma insulin, Pre", "setting": "HFD-fed ob/ob mice; before dosing, mean ± SD, n=8", "result": "103 ± 29", "unit": "ng/mL"}, {"measurement": "ΔGHb, AVE", "setting": "HFD-fed ob/ob mice; change 34 days after repeated dosing, CpdB 30 mg/kg, pioglitazone 3 mg/kg oral once daily, mean", "result": -1.01, "unit": "%"}, {"measurement": "ΔGHb, individual animal", "setting": "HFD-fed ob/ob mice; change 34 days after repeated dosing, CpdB 30 mg/kg, pioglitazone 3 mg/kg, single animal values", "result": "-1.00% and -0.90% and -1.10% and -1.40% and -0.70% and -0.80%"}, {"measurement": "GHb, Post", "setting": "HFD-fed ob/ob mice; [5]", "result": "4.9 ± 0.4", "unit": "%"}, {"measurement": "Plasma ALT, Post", "setting": "HFD-fed ob/ob mice; [5]", "result": "803 ± 132", "unit": "U·L^−1"}, {"measurement": "Plasma AST, Post", "setting": "HFD-fed ob/ob mice; [5]", "result": "733 ± 174", "unit": "U·L^−1"}, {"measurement": "Plasma insulin, Post", "setting": "HFD-fed ob/ob mice; day 34, CpdB 30 mg/kg, pioglitazone 3 mg/kg oral once daily, nonfasting, mean ± SD, n=8", "result": "30.8 ± 16", "unit": "ng/mL"}]}
